Where “and” joins values, the source holds several entries; their conditions need not be identical. Identical values can stand only once. Toxic doses and inconclusive results are not listed.
Tested on: L1210 leukemia ip in BDF1 mice, survival T/C
Experiment: NCI In Vivo Anticancer Drug Screen. Data for tumor model L1210 Leukemia (intraperitoneal) in B6D2F1 (BDF1) mice
Settings: endpoint: mean survival time, higher = longer survival
Procedure, shortened: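 Value reflects the ratio of survival in compound-treated mice to survival in vehicle-treated controls, with both groups carrying the same transplanted tumor.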

[1] = dose: 100.0 mg/kg/injection, schedule: Q04DX003 (ip), vehicle: saline with Tween-80
[2] = dose: 200.0 mg/kg/injection, schedule: Q04DX003 (ip), vehicle: saline with Tween-80
[3] = dose: 100.0 mg/kg/injection, schedule: Q01DX009 (ip), vehicle: saline with Tween-80
[4] = dose: 200.0 mg/kg/injection, schedule: Q01DX009 (ip), vehicle: saline with Tween-80
[5] = dose: 300.0 mg/kg/injection, schedule: Q04DX003 (ip), vehicle: saline
[6] = dose: 100.0 mg/kg/injection, schedule: Q04DX002 (ip), vehicle: Klucel (hydroxypropylcellulose) (HPC)
[7] = dose: 200.0 mg/kg/injection, schedule: Q04DX002 (ip), vehicle: Klucel (hydroxypropylcellulose) (HPC)
[8] = dose: 100.0 mg/kg/injection, schedule: Q01DX009 (ip), vehicle: saline
[9] = dose: 100.0 mg/kg/injection, schedule: Q04DX003 (ip), vehicle: saline
[10] = dose: 200.0 mg/kg/injection, schedule: Q04DX003 (ip), vehicle: saline
[11] = dose: 400.0 mg/kg/injection, schedule: Q04DX003 (ip), vehicle: saline
[12] = dose: 400.0 mg/kg/injection, schedule: Q04DX003 (ip), vehicle: saline with Tween-80
[13] = dose: 400.0 mg/kg/injection, schedule: Q01DX009 (ip), vehicle: saline with Tween-80

C/C=C/CC1(CCCC)C(=O)NC(=O)NC1=O
T/C (dose: 75.0 mg/kg/injection, schedule: Q01DX001 (ip), vehicle: saline): 106 % of control | T/C (dose: 150.0 mg/kg/injection, schedule: Q01DX001 (ip), vehicle: saline): 102 % of control

CCCCCCCCCCOP1(=O)C=C(C)CC1 (centres undefined)
T/C [1]: 93 % of control | T/C [2]: 93 % of control

OCC(O)COc1ccc(Cl)cc1Cl (centres undefined)
T/C [3]: 105 % of control | T/C [4]: 101 % of control

CCn1c2ccccc2c2c(C)c3cnccc3c(C)c21
T/C (dose: 37.5 mg/kg/injection, schedule: Q04DX003 (ip), vehicle: saline): 94 % of control | T/C (dose: 62.5 mg/kg/injection, schedule: Q01DX009 (ip), vehicle: saline with Tween-80): 193 % of control | T/C (dose: 75.0 mg/kg/injection, schedule: Q04DX003 (ip), vehicle: saline): 90 % of control | T/C (dose: 125.0 mg/kg/injection, schedule: Q01DX009 (ip), vehicle: saline with Tween-80): 101 % of control | T/C (dose: 150.0 mg/kg/injection, schedule: Q04DX003 (ip), vehicle: saline): 92 % of control | T/C (dose: 250.0 mg/kg/injection, schedule: Q01DX009 (ip), vehicle: saline with Tween-80): 105 % of control | T/C [5]: 94 % of control

O=C=Nc1ccccc1-c1ccccc1
T/C (dose: 100.0 mg/kg/injection, schedule: Q04DX002 (ip), vehicle: saline with Tween-80): 98 % of control | T/C (dose: 200.0 mg/kg/injection, schedule: Q04DX002 (ip), vehicle: saline with Tween-80): 98 % of control | T/C (dose: 400.0 mg/kg/injection, schedule: Q04DX002 (ip), vehicle: saline with Tween-80): 100 % of control

O=[N+]([O-])c1cc(Cl)cc2c1-c1ccc(Cl)cc1/C2=N\O
T/C (dose: 100.0 mg/kg/injection, schedule: Q01DX001 (ip), vehicle: carboxymethylcellulose (CMC)): 103 % of control | T/C (dose: 200.0 mg/kg/injection, schedule: Q01DX001 (ip), vehicle: carboxymethylcellulose (CMC)): 103 % of control | T/C (dose: 400.0 mg/kg/injection, schedule: Q01DX001 (ip), vehicle: carboxymethylcellulose (CMC)): 103 % of control

Cc1c(F)cccc1NCC(=O)NN
T/C [6]: 101 % of control | T/C [7]: 115 % of control

CC12CC3(O)CCC1CCC2C(=O)C3 (centres undefined)
T/C [8]: 95 % of control | T/C [9]: 93 % of control | T/C [10]: 96 % of control | T/C (dose: 400.0 mg/kg/injection, schedule: Q01DX009 (ip), vehicle: saline): 96 % of control | T/C [11]: 105 % of control

CC(=O)Nc1ccc(S(=O)(=O)NC2CCCCC2)cc1
T/C (dose: 50.0 mg/kg/injection, schedule: Q01DX001 (ip), vehicle: Klucel (hydroxypropylcellulose) (HPC)): 94 % of control | T/C (dose: 100.0 mg/kg/injection, schedule: Q01DX001 (ip), vehicle: Klucel (hydroxypropylcellulose) (HPC)): 97 % of control | T/C (dose: 200.0 mg/kg/injection, schedule: Q01DX001 (ip), vehicle: Klucel (hydroxypropylcellulose) (HPC)): 100 % of control

Cc1ccc(C(C)C)c(OCCNC2=NCCN2)c1
T/C (dose: 6.25 mg/kg/injection, schedule: Q01DX009 (ip), vehicle: saline): 97 % of control | T/C (dose: 6.25 mg/kg/injection, schedule: Q04DX003 (ip), vehicle: saline): 97 % of control | T/C (dose: 12.5 mg/kg/injection, schedule: Q01DX009 (ip), vehicle: saline): 104 % of control | T/C (dose: 12.5 mg/kg/injection, schedule: Q04DX003 (ip), vehicle: saline): 92 % of control | T/C (dose: 25.0 mg/kg/injection, schedule: Q01DX009 (ip), vehicle: saline): 97 % of control | T/C (dose: 25.0 mg/kg/injection, schedule: Q04DX003 (ip), vehicle: saline): 97 % of control

COC(=O)CCCC1CC(=O)c2c(c(O)c3ccccc3c2O)C1=O (centres undefined)
T/C (dose: 100.0 mg/kg/injection, schedule: Q01DX005 (ip), vehicle: saline with Tween-80): 92 % of control | T/C [1]: 119 % of control | T/C (dose: 200.0 mg/kg/injection, schedule: Q01DX005 (ip), vehicle: saline with Tween-80): 95 % of control | T/C [2]: 105 % of control | T/C (dose: 400.0 mg/kg/injection, schedule: Q01DX005 (ip), vehicle: saline with Tween-80): 97 % of control | T/C [12]: 103 % of control

COc1ccc(C(=O)N/N=C/c2cccc(OC)c2OC)cc1
T/C (dose: 45.0 mg/kg/injection, schedule: Q01DX009 (ip), vehicle: saline): 98 % of control | T/C (dose: 65.0 mg/kg/injection, schedule: Q01DX009 (ip), vehicle: saline): 98 % of control | T/C (dose: 85.0 mg/kg/injection, schedule: Q04DX003 (ip), vehicle: saline): 93 % of control | T/C [8]: 102 % of control | T/C [6]: 104 % of control and 105 % of control | T/C (dose: 130.0 mg/kg/injection, schedule: Q04DX003 (ip), vehicle: saline): 93 % of control | T/C (dose: 150.0 mg/kg/injection, schedule: Q01DX009 (ip), vehicle: saline): 95 % of control | T/C (dose: 175.0 mg/kg/injection, schedule: Q01DX001 (ip), vehicle: saline): 104 % of control | T/C (dose: 175.0 mg/kg/injection, schedule: Q04DX002 (ip), vehicle: saline): 91 % of control | T/C [7]: 101 % of control and 104 % of control | T/C [10]: 93 % of control | T/C (dose: 265.0 mg/kg/injection, schedule: Q01DX001 (ip), vehicle: saline): 107 % of control | T/C (dose: 265.0 mg/kg/injection, schedule: Q04DX002 (ip), vehicle: saline): 102 % of control | T/C [5]: 102 % of control | T/C (dose: 400.0 mg/kg/injection, schedule: Q01DX001 (ip), vehicle: saline): 96 % of control | T/C (dose: 400.0 mg/kg/injection, schedule: Q04DX002 (ip), vehicle: saline): 96 % of control | T/C (dose: 600.0 mg/kg/injection, schedule: Q01DX001 (ip), vehicle: saline): 102 % of control | T/C (dose: 600.0 mg/kg/injection, schedule: Q04DX002 (ip), vehicle: saline): 106 % of control

NC(=O)c1ccccc1C(=O)c1ccccc1
T/C (dose: 100.0 mg/kg/injection, schedule: Q01DX001 (ip), vehicle: saline): 102 % of control | T/C (dose: 200.0 mg/kg/injection, schedule: Q01DX001 (ip), vehicle: saline): 104 % of control

O=C(O)c1ccc(Cl)o1
T/C (dose: 100.0 mg/kg/injection, schedule: Q01DX009 (ip), vehicle: Klucel (hydroxypropylcellulose) (HPC)): 97 % of control | T/C (dose: 200.0 mg/kg/injection, schedule: Q01DX009 (ip), vehicle: Klucel (hydroxypropylcellulose) (HPC)): 98 % of control

CCCCOC(=O)c1ccc(NC(=O)C(Cl)Cl)cc1
T/C [9]: 99 % of control | T/C [10]: 89 % of control | T/C [11]: 89 % of control

COC1=C(C)C(=O)c2c(c(COC(N)=O)c3n2CC2C3N2C)C1=O (centres undefined)
T/C (dose: 1.0 mg/kg/injection, schedule: Q01DX009 (ip), vehicle: carboxymethylcellulose (CMC)): 123 % of control | T/C (dose: 1.8 mg/kg/injection, schedule: Q01DX009 (ip), vehicle: carboxymethylcellulose (CMC)): 105 % of control | T/C (dose: 1.9 mg/kg/injection, schedule: Q01DX001 (ip), vehicle: other): 116 % of control and 122 % of control | T/C (dose: 2.9 mg/kg/injection, schedule: Q01DX001 (ip), vehicle: other): 119 % of control | T/C (dose: 4.5 mg/kg/injection, schedule: Q01DX001 (ip), vehicle: other): 122 % of control | T/C (dose: 6.7 mg/kg/injection, schedule: Q01DX001 (ip), vehicle: other): 123 % of control

CC(=O)OC(c1ccccc1)C(C)C(OC(C)=O)(C(F)(F)F)C(F)(F)F (centres undefined)
T/C [3]: 102 % of control | T/C [1]: 102 % of control | T/C [4]: 98 % of control | T/C [2]: 94 % of control | T/C [13]: 100 % of control | T/C [12]: 93 % of control

O=C1OC(c2ccccc2)CC1N1CCOCC1 (centres undefined)
T/C (dose: 100.0 mg/kg/injection, schedule: Q01DX009 (ip), vehicle: saline sonified): 106 % of control | T/C (dose: 100.0 mg/kg/injection, schedule: Q04DX003 (ip), vehicle: Klucel (hydroxypropylcellulose) (HPC)): 98 % of control | T/C (dose: 200.0 mg/kg/injection, schedule: Q01DX009 (ip), vehicle: saline sonified): 99 % of control | T/C (dose: 200.0 mg/kg/injection, schedule: Q04DX003 (ip), vehicle: Klucel (hydroxypropylcellulose) (HPC)): 104 % of control | T/C (dose: 400.0 mg/kg/injection, schedule: Q01DX009 (ip), vehicle: saline sonified): 97 % of control | T/C (dose: 400.0 mg/kg/injection, schedule: Q04DX003 (ip), vehicle: Klucel (hydroxypropylcellulose) (HPC)): 98 % of control

c1ccc(C2COC3(CCCCC3)O2)cc1 (centres undefined)
T/C (dose: 222.0 mg/kg/injection, schedule: Q01DX Z (ip), vehicle: methylcellulose (MC)): 90 % of control | T/C (dose: 333.0 mg/kg/injection, schedule: Q01DX Z (ip), vehicle: methylcellulose (MC)): 95 % of control

Clc1ccc(N=Cc2ccccc2Cl)cc1
T/C [3]: 94 % of control | T/C [4]: 92 % of control | T/C [13]: 89 % of control
